{"source": "patent US20070274946A1", "about": "“Tolerance to Graft Prior to Thymic Reactivation” (Norwood Immunoloty, Ltd., priority 1999, published 2007)", "key": {"[1]": {"experiment": "Chemical castration versus surgical castration after cyclophosphamide T cell depletion", "type": "in vivo, mice", "source_text": "FIG. 9: Changes in thymus (open bars), spleen (gray bars) and lymph node (black bars) cell numbers following treatment with cyclophosphamide, a chemotherapy agent, and surgical or chemical castration performed on the same day. Note the rapid expansion of the thymus in castrated animals when compared to the non-castrate (cyclophosphamide alone) group at 1 and 2 weeks post-treatment. In addition, spleen and lymph node numbers of the castrate group were well increased compared to the cyclophosphamide alone group. (n=3-4 per treatment group and time point).\nOld mice (e.g., 2 years old) were injected with cyclophosphamide (200 mg/kg body wt over two days) and castrated.\nFIG. 9 illustrates the use of chemical castration compared to surgical castration in enhancement of T cell regeneration. […] The enhancing effects were equivalent on thymic expansion and also the recovery of spleen and lymph node. The kinetics of chemical castration are slower than surgical, that is, mice take about 3 weeks longer to decrease their circulating sex steroid levels. However, chemical castration is still as effective as surgical castration and can be considered to have an equivalent effect."}, "[2]": {"experiment": "Chemical castration of aged female Balb/cJ mice, radioimmunoassay of plasma sex steroids", "type": "in vivo", "conditions": "10 mg/kg s.c., 1 month slow release formulation", "experimental": "To do this, aged (i.e., 2 year old) female Balb/cJ (H-2d) mice are either surgically castrated (e.g., by removing the ovaries according to standard methods), or are chemically castrated. For chemical castration, mice are injected subcutaneously with 10 mg/kg Lupron (a GnRH agonist) as a 1 month slow release formulation. Alternatively mice are injected with a GnRH antagonist (e.g., Cetrorelix or Abarelix). Confirmation of loss of sex steroids is performed by standard radioimmunoassay of plasma samples following manufacturer's instructions, and may be monitored throughout the procedure."}, "[3]": {"conditions": "chronic administration; cited from earlier work"}, "[4]": {"experiment": "Sex steroid ablation therapy of the patient with an LHRH agonist (Example 6)", "type": "in vivo, human", "conditions": "single dose effective for 3 months", "experimental": "The patient was given sex steroid ablation therapy in the form of delivery of an LHRH agonist. This was given in the form of either Leucrin (depot injection; 22.5 mg) or Zoladex® (implant; 10.8 mg), either one as a single dose effective for 3 months. […] In some cases it is also necessary to deliver a suppresser of adrenal gland production of sex steroids. Cosudex® (5 mg/day or 50 mg/day) may also be given as one tablet per day for the duration of the sex steroid ablation therapy. Alternatively, the patient is given a GnRH antagonist, e.g., Cetrorelix or Abarelix as a subcutaneous injection"}, "[5]": {"tested_on": "IL-7-dependent murine pre-B cell line 2E8", "experiment": "Thymidine incorporation proliferation assay with IL-7-dependent cell line", "type": "cell-based", "conditions": "2E8 cells", "experimental": "Tissue culture medium consisted of RPMI 1640 supplemented with 10% heat inactivated fetal calf serum, 100 U/mL penicillin, […] streptomycin, and 2 mM L-glutamine (as well as […] 2-mercaptoethanol for the culture of 32Dp210 cells and proliferation assays)."}, "[6]": {"experiment": "IL-7 administration with or without castration after allogeneic HSCT, thymic cellularity", "type": "in vivo, mice", "source_text": "Male C57BL/6J (B6, H-2b), C3FeB6F1/J([B6 3 C3H]F1; H-2b/k), B10.BR (H-2k), B6D2F1/J (H-2b/d), CBA/J (H-2k), Balb/c (H2-d), IL7−/− and KGF−/− mice were obtained from the Jackson Laboratory (Bar Harbor, Maine) and used in experiments when they were between 8 and 12 weeks of age. KGF−/− and IL7−/− were used between 4 and 7 months of age. HSCT protocols were approved by the Memorial Sloan-Kettering Cancer Center Institutional Animal Care and Use Committee. The BM cells were removed aseptically from femurs and tibias. Donor BM was depleted of T cells by incubation with anti-Thy-1.2 for 30 minutes at 4° C. followed by incubation with Low-TOX-M rabbit complement (Cedarlane Laboratories, Hornby, ON, Canada) for 1 hour at 37° C. Splenic T cells (for GVHD analysis) were obtained by purification over a nylon wool column followed by red cell removal with ammonium chloride red cell lysis buffer. Cells (5×10^6 BM cells with or without splenic T cells and leukemia cells) were resuspended in Dulbecco modified essential medium (Life Technologies, Grand Island, N.Y.) and transplanted by tail vein infusion (0.25 mL total volume) into lethally irradiated recipients on day 0. Prior to transplantation, on day 0, recipients received 1300 cGy total body irradiation (^137Cs source) as split dose with 3 hours between doses (to reduce gastrointestinal toxicity). Mice were housed in sterilized microisolator cages and received normal chow and autoclaved hyperchlorinated drinking water (pH 3.0).\nIL-7 were either given from days 0 to 13 or 21 to 27 intraperitoneally at 10 μg/day for immune reconstitution studies. PBS was injected into control mice at the same time points.\nBM cells, splenocytes or thymocytes were washed in FACS buffer (phosphate buffered saline (PBS)/2% bovine serum albumin (BSA)/0.1% azide) and 1-3×10^6 cells were incubated for 30 minutes at 4° C. with CD16/CD32 FcR block. Cells were then incubated for 30 minutes at 4° C. with primary antibodies and washed twice with FACS buffer. Where necessary, cells were incubated with conjugated Streptavidin for a further 30 minutes at 4° C. The stained cells were resuspended in FACS buffer and analyzed on a FACSCalibur™ flow cytometer (Becton Dickinson, San Jose, Calif.) with CellQuest™ software."}}}
{"compound": "CCNC(=O)[C@@H]1CCCN1C(=O)[C@H](CCCN=C(N)N)NC(=O)[C@H](CC(C)C)NC(=O)[C@@H](Cc1c[nH]c2ccccc12)NC(=O)[C@H](Cc1ccc(O)cc1)NC(=O)[C@H](CO)NC(=O)[C@H](Cc1c[nH]c2ccccc12)NC(=O)[C@H](Cc1cnc[nH]1)NC(=O)[C@@H]1CCC(=O)N1", "note": "[Deslorelin]", "values": [{"measurement": "additional time to decrease circulating sex steroid levels versus surgical castration", "setting": "[1]; chemical castration", "value": "about 3 weeks"}, {"measurement": "rate of regeneration post-cyclophosphamide treatment compared to surgical castration", "setting": "[1]; injected for four weeks, T cell regeneration", "value": "comparable rate of regeneration"}, {"measurement": "enhancing effects on thymic expansion and recovery of spleen and lymph node versus surgical castration", "setting": "[1]; post-cyclophosphamide", "value": "equivalent"}]}
{"compound": "CCNC(=O)[C@@H]1CCCN1C(=O)[C@H](CCCNC(=N)N)NC(=O)[C@H](CC(C)C)NC(=O)[C@@H](CC(C)C)NC(=O)[C@H](Cc1ccc(O)cc1)NC(=O)[C@H](CO)NC(=O)[C@H](Cc1c[nH]c2ccccc12)NC(=O)[C@H](Cc1c[nH]cn1)NC(=O)[C@@H]1CCC(=O)N1", "note": "[Lupron, leuprolide acetate]", "values": [{"measurement": "time post injection to castrate levels (<0.5 ng estrogen/ml)", "setting": "[2]", "value": "3-4 weeks"}]}
{"compound": "CC(C)C[C@H](NC(=O)[C@@H](COC(C)(C)C)NC(=O)[C@H](Cc1ccc(O)cc1)NC(=O)[C@H](CO)NC(=O)[C@H](Cc1c[nH]c2ccccc12)NC(=O)[C@H](Cc1cnc[nH]1)NC(=O)[C@@H]1CCC(=O)N1)C(=O)N[C@@H](CCCNC(=N)N)C(=O)N1CCC[C@H]1C(=O)NNC(N)=O", "note": "[Zoladex, goserelin acetate]", "values": [{"measurement": "serum testosterone levels in males", "setting": "[3]", "value": "a range normally seen in surgically castrated men"}, {"measurement": "time to sustained suppression of pituitary LH after initiation of therapy", "setting": "[3]", "value": "approximately three"}, {"measurement": "reduction of sex steroid levels", "setting": "[4]", "value": "effective in reducing sex steroid levels sufficiently to reactivate the thymus"}]}
{"compound": "IL-7: Recombinant human IL-7 provided by Cytheris", "values": [{"measurement": "proliferative effect on murine cells", "setting": "[5]", "value": "equal to murine IL-7"}, {"measurement": "thymic cellularity, combined treatment (castration and IL-7)", "setting": "[6]; day 14 after allo-HSCT", "value": "significantly more cells"}, {"measurement": "thymic cellularity, IL-7 treated sham-castrated versus PBS treated sham-castrated", "setting": "[6]; day 14 after allo-HSCT, 10 ug/day i.p. days 0-13", "value": "no difference"}, {"measurement": "effect of IL-7 treatment combined with castration on thymic cellularity", "setting": "[6]; day 28 after allo-HSCT", "value": "additive effect"}, {"measurement": "thymic cellularity, IL-7 alone group versus control group", "setting": "[6]; day 28 after allo-HSCT", "value": "significantly higher"}]}
